Experimental data published in patent US8927500B2, “Peptidomimetic macrocycles” (Aileron Therapeutics, Inc., priority 2012, dated 2015).
Where a SMILES comes first, the peptide text is derived from it. Bridges are numbered along the chain shown (N, C = ends). [ ]: non-standard residue; d: D form. Trp(6-Cl) = N[C@@H](Cc1c[nH]c2cc(Cl)ccc12)C(=O)O; R8 = C=CCCCCCC[C@@](C)(N)C(=O)O; Cba = N[C@@H](CC1CCC1)C(=O)O; S5 = C=CCCC[C@](C)(N)C(=O)O; Nle = CCCC[C@H](N)C(=O)O

Tests used:
MDMX = target: T1, MDMX (Homo sapiens, UniProt O15151); experiment: Competitive fluorescence polarization assay for MDMX; assay type: binding; conditions: competitive FP assay; for IC50: read-out: IC50 (MDMX); for Ki: read-out: Ki (MDMX)
T1 sequence (O15151 1-125): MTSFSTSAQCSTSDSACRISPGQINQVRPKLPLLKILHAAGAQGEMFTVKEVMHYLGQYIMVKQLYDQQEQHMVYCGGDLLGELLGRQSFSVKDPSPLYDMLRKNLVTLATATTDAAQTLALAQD

MDM2 = MDM2 (Homo sapiens, UniProt Q00987); experiment: Competitive fluorescence polarization assay for MDM2; assay type: binding; conditions: competitive FP assay, MDM2; for IC50: read-out: IC50 (MDM2); for Ki: read-out: Ki (MDM2)
Chain of MDM2 (Q00987 1-125): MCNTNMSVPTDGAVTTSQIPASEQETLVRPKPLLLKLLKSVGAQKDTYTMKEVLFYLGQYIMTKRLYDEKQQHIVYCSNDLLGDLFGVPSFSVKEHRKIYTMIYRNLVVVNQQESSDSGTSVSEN

| Compound | IC50 (MDMX) [nM] | Ki (MDMX) [nM] | IC50 (MDM2) [nM] | Ki (MDM2) [nM] |
| --- | --- | --- | --- | --- |
| CCCC[C@H](NC(=O)[C@H](C)NC(=O)[C@H](C)NC(=O)[C@]1(C)CCCC=CCCCCCC[C@@](C)(NC(=O)[C@H](Cc2ccccc2)NC(=O)[C@@H](NC(=O)[C@H](CC(C)C)NC(C)=O)[C@@H](C)O)C(=O)N[C@@H](C)C(=O)N[C@@H](Cc2ccc(O)cc2)C(=O)N[C@@H](Cc2c[nH]c3ccccc23)C(=O)N[C@@H](C)C(=O)N[C@@H](CCC(N)=O)C(=O)N[C@@H](CCC(C)C)C(=O)N1)C(=O)N[C@@H](C)C(=O)N[C@@H](C)C(N)=O [compound 323] | > 1000 | 100 to 1000 | 10 to 100 | 10 to 100 |
| CC(=O)N[C@@H](C)C(=O)N[C@@H](CC(C)C)C(=O)N[C@H](C(=O)N[C@@H](Cc1ccccc1)C(=O)N[C@]1(C)CCCCCCC=CCCC[C@@](C)(C(=O)N[C@@H](CO)C(=O)N[C@@H](C)C(=O)N[C@@H](C)C(=O)N[C@@H](C)C(N)=O)NC(=O)[C@H](CC2CCC2)NC(=O)[C@H](CCC(N)=O)NC(=O)[C@H](C)NC(=O)[C@H](Cc2c[nH]c3ccccc23)NC(=O)[C@H](Cc2ccc(O)cc2)NC(=O)[C@H](CCC(=O)O)NC1=O)[C@@H](C)O [compound 329] | 10 to 100 | 10 to 100 | 10 to 100 | < 10 |
| CC(=O)N[C@@H](Cc1ccccc1)C(=O)N[C@]1(C)CCCCCCC=CCCC[C@@](C)(C(=O)N[C@@H](C)C(=O)N[C@@H](C)C(=O)N[C@@H](C)C(=O)N[C@@H](C)C(=O)N[C@@H](C)C(=O)N[C@@H](C)C(=O)N[C@H](C)C(N)=O)NC(=O)[C@H](CC(C)C)NC(=O)[C@H](C)NC(=O)[C@H](CCC(=O)O)NC(=O)[C@H](Cc2c[nH]c3cc(Cl)ccc23)NC(=O)[C@H](Cc2ccc(O)cc2)NC(=O)[C@H](C)NC1=O [compound 339] (Ac-F[R8]AY[Trp(6-Cl)]EAL[S5]AAAAAA[dA]-NH2; staple 2-9) | 100 to 1000 | 10 to 100 | < 10 | < 10 |
| CC(=O)N[C@@H](CCCNC(=N)N)C(=O)N[C@H](C(=O)N[C@@H](Cc1ccccc1)C(=O)N[C@]1(C)CCCCCCC=CCCC[C@@](C)(C(=O)N[C@@H](CO)C(=O)N[C@@H](C)C(=O)N[C@@H](C)C(N)=O)NC(=O)[C@H](CC2CCC2)NC(=O)[C@H](CCC(N)=O)NC(=O)[C@H](C)NC(=O)[C@H](Cc2c[nH]c3ccccc23)NC(=O)[C@H](Cc2ccc(O)cc2)NC(=O)[C@H](CCC(=O)O)NC1=O)[C@@H](C)O [compound 360] (Ac-RTF[R8]EYWAQ[Cba][S5]SAA-NH2; staple 4-11) | < 10 | < 10 | < 10 | < 10 |
| CC(=O)N[C@@H](CC(C)C)C(=O)N[C@H](C(=O)N[C@@H](Cc1ccccc1)C(=O)N[C@]1(C)CCCCCCC=CCCC[C@@](C)(C(=O)N[C@@H](CO)C(=O)N[C@@H](C)C(=O)N[C@@H](C)C(N)=O)NC(=O)[C@H](CC2CCC2)NC(=O)[C@H](CCCNC(=N)N)NC(=O)[C@H](C)NC(=O)[C@H](Cc2c[nH]c3ccccc23)NC(=O)[C@H](Cc2ccc(O)cc2)NC(=O)[C@H](CCC(=O)O)NC1=O)[C@@H](C)O [compound 363] (Ac-LTF[R8]EYWAR[Cba][S5]SAA-NH2; staple 4-11) | 10 to 100 | < 10 | 10 to 100 | < 10 |
| CC(=O)N[C@@H](CC(C)C)C(=O)N[C@H](C(=O)N[C@@H](Cc1ccccc1)C(=O)N[C@]1(C)CCCCCCC=CCCC[C@@](C)(C(=O)N[C@@H](CCCNC(=N)N)C(=O)N[C@@H](C)C(=O)N[C@@H](C)C(N)=O)NC(=O)[C@H](CC2CCC2)NC(=O)[C@H](CCC(N)=O)NC(=O)[C@H](C)NC(=O)[C@H](Cc2c[nH]c3ccccc23)NC(=O)[C@H](Cc2ccc(O)cc2)NC(=O)[C@H](CCC(=O)O)NC1=O)[C@@H](C)O [compound 364] (Ac-LTF[R8]EYWAQ[Cba][S5]RAA-NH2; staple 4-11) | 10 to 100 | < 10 | 10 to 100 | < 10 |
| CC(=O)N[C@@H](CC(C)C)C(=O)N[C@H](C(=O)N[C@@H](Cc1ccccc1)C(=O)N[C@]1(C)CCCCCCC=CCCC[C@@](C)(C(=O)N[C@@H](CO)C(=O)N[C@@H](CCCNC(=N)N)C(=O)N[C@@H](C)C(N)=O)NC(=O)[C@H](CC2CCC2)NC(=O)[C@H](CCC(N)=O)NC(=O)[C@H](C)NC(=O)[C@H](Cc2c[nH]c3ccccc23)NC(=O)[C@H](Cc2ccc(O)cc2)NC(=O)[C@H](CCC(=O)O)NC1=O)[C@@H](C)O [compound 365] (Ac-LTF[R8]EYWAQ[Cba][S5]SRA-NH2; staple 4-11) | 10 to 100 | < 10 | 10 to 100 | < 10 |
| CC(=O)N[C@@H](CC(C)C)C(=O)N[C@H](C(=O)N[C@@H](Cc1ccccc1)C(=O)N[C@]1(C)CCCCCCC=CCCC[C@@](C)(C(=O)N[C@@H](CO)C(=O)N[C@@H](C)C(=O)N[C@@H](CCCNC(=N)N)C(N)=O)NC(=O)[C@H](CC2CCC2)NC(=O)[C@H](CCC(N)=O)NC(=O)[C@H](C)NC(=O)[C@H](Cc2c[nH]c3ccccc23)NC(=O)[C@H](Cc2ccc(O)cc2)NC(=O)[C@H](CCC(=O)O)NC1=O)[C@@H](C)O [compound 366] (Ac-LTF[R8]EYWAQ[Cba][S5]SAR-NH2; staple 4-11) | 10 to 100 | 10 to 100 | 10 to 100 | < 10 |
| CCCC[C@H](NC(=O)[C@H](C)NC(=O)[C@H](C)NC(=O)[C@]1(C)CCCC=CCCCCCC[C@@](C)(NC(=O)[C@H](Cc2ccccc2)NC(=O)[C@H](C)NC(=O)[C@H](CC(C)C)NC(C)=O)C(=O)N[C@@H](CCC(=O)O)C(=O)N[C@@H](Cc2ccc(O)cc2)C(=O)N[C@@H](Cc2c[nH]c3ccccc23)C(=O)N[C@@H](C)C(=O)N[C@@H](CCC(N)=O)C(=O)N[C@@H](CC(C)C)C(=O)N1)C(=O)N[C@@H](C)C(N)=O [compound 369] (Ac-LAF[R8]EYWAQL[S5]AA[Nle]A-NH2; staple 4-11) | 100 to 1000 | 10 to 100 | 100 to 1000 | 10 to 100 |
| CCCC[C@H](NC(=O)[C@H](C)NC(=O)[C@H](C)NC(=O)[C@]1(C)CCCC=CCCCCCC[C@@](C)(NC(=O)[C@H](Cc2ccccc2)NC(=O)[C@@H](NC(=O)[C@H](C)NC(C)=O)[C@@H](C)O)C(=O)N[C@@H](CCC(=O)O)C(=O)N[C@@H](Cc2ccc(O)cc2)C(=O)N[C@@H](Cc2c[nH]c3ccccc23)C(=O)N[C@@H](C)C(=O)N[C@@H](CCC(N)=O)C(=O)N[C@@H](CC(C)C)C(=O)N1)C(=O)N[C@@H](C)C(N)=O [compound 370] (Ac-ATF[R8]EYWAQL[S5]AA[Nle]A-NH2; staple 4-11) | 10 to 100 | 10 to 100 | 10 to 100 | < 10 |
| CCCC[C@H](NC(=O)[C@H](C)NC(=O)[C@H](C)NC(=O)[C@]1(C)CCCC=CCCCCCC[C@@](C)(NC(=O)[C@H](Cc2ccccc2)NC(=O)[C@H](C)NC(=O)[C@H](C)NC(C)=O)C(=O)N[C@@H](CCC(=O)O)C(=O)N[C@@H](Cc2ccc(O)cc2)C(=O)N[C@@H](Cc2c[nH]c3ccccc23)C(=O)N[C@@H](C)C(=O)N[C@@H](CCC(N)=O)C(=O)N[C@@H](CC(C)C)C(=O)N1)C(=O)N[C@@H](C)C(N)=O [compound 371] (Ac-AAF[R8]EYWAQL[S5]AA[Nle]A-NH2; staple 4-11) | 100 to 1000 | 10 to 100 | 100 to 1000 | 10 to 100 |
| CCCC[C@H](NC(=O)[C@H](C)NC(=O)[C@H](C)NC(=O)[C@]1(C)CCCC=CCCCCCC[C@@](C)(NC(=O)[C@H](Cc2ccccc2)NC(=O)[C@H](C)NC(=O)[C@H](C)NC(=O)[C@H](C)NC(C)=O)C(=O)N[C@@H](CCC(=O)O)C(=O)N[C@@H](Cc2ccc(O)cc2)C(=O)N[C@@H](Cc2c[nH]c3ccccc23)C(=O)N[C@@H](C)C(=O)N[C@@H](CCC(N)=O)C(=O)N[C@@H](CC(C)C)C(=O)N1)C(=O)N[C@@H](C)C(N)=O [compound 372] (Ac-AAAF[R8]EYWAQL[S5]AA[Nle]A-NH2; staple 5-12) | 100 to 1000 | 10 to 100 | 100 to 1000 | 10 to 100 |
| CCCC[C@H](NC(=O)[C@H](C)NC(=O)[C@H](C)NC(=O)[C@]1(C)CCCC=CCCCCCC[C@@](C)(NC(=O)[C@H](Cc2ccccc2)NC(=O)[C@H](C)NC(=O)[C@H](C)NC(=O)[C@H](C)NC(=O)[C@H](C)NC(C)=O)C(=O)N[C@@H](CCC(=O)O)C(=O)N[C@@H](Cc2ccc(O)cc2)C(=O)N[C@@H](Cc2c[nH]c3ccccc23)C(=O)N[C@@H](C)C(=O)N[C@@H](CCC(N)=O)C(=O)N[C@@H](CC(C)C)C(=O)N1)C(=O)N[C@@H](C)C(N)=O [compound 373] (Ac-AAAAF[R8]EYWAQL[S5]AA[Nle]A-NH2; staple 6-13) | 10 to 100 | 10 to 100 | 10 to 100 | 10 to 100 |
| CCCC[C@H](NC(=O)[C@H](C)NC(=O)[C@H](C)NC(=O)[C@]1(C)CCCC=CCCCCCC[C@@](C)(NC(=O)[C@H](Cc2ccccc2)NC(=O)[C@@H](NC(=O)[C@H](C)NC(=O)[C@H](C)NC(C)=O)[C@@H](C)O)C(=O)N[C@@H](CCC(=O)O)C(=O)N[C@@H](Cc2ccc(O)cc2)C(=O)N[C@@H](Cc2c[nH]c3ccccc23)C(=O)N[C@@H](C)C(=O)N[C@@H](CCC(N)=O)C(=O)N[C@@H](CC(C)C)C(=O)N1)C(=O)N[C@@H](C)C(N)=O [compound 374] (Ac-AATF[R8]EYWAQL[S5]AA[Nle]A-NH2; staple 5-12) | 10 to 100 | < 10 | 10 to 100 | < 10 |
| CCCC[C@H](NC(=O)[C@H](C)NC(=O)[C@H](C)NC(=O)[C@]1(C)CCCC=CCCCCCC[C@@](C)(NC(=O)[C@H](Cc2ccccc2)NC(=O)[C@@H](NC(=O)[C@H](CC(C)C)NC(=O)[C@H](C)NC(=O)[C@H](C)NC(C)=O)[C@@H](C)O)C(=O)N[C@@H](CCC(=O)O)C(=O)N[C@@H](Cc2ccc(O)cc2)C(=O)N[C@@H](Cc2c[nH]c3ccccc23)C(=O)N[C@@H](C)C(=O)N[C@@H](CCC(N)=O)C(=O)N[C@@H](CC(C)C)C(=O)N1)C(=O)N[C@@H](C)C(N)=O [compound 375] (Ac-AALTF[R8]EYWAQL[S5]AA[Nle]A-NH2; staple 6-13) | 10 to 100 | < 10 | 10 to 100 | < 10 |
